Measurements reported in patent publication US10231980B2, “Cortexolone 17alpha-benzoate for use in the treatment of tumours” (COSMO TECHNOLOGIES LTD., priority 2014, dated 2019).
Where two headings read alike, the source gives them in different places.

What was measured:
stimulated PBMC [1] = test: IC50 on stimulated (actively dividing) PBMC; format: cell-based, human; details: PBMC Stim; Table IV
LNCaP = test: ATP-dependent cell viability assay (Cell Titer Glo), Example 12; details: for IC50: Homo sapiens
From the text: (§1) Data shown in Table I were fitted through sigmoidal dose response curves and analyzed using Prizm statistical.

PC3 = test: as above; details: for IC50: Homo sapiens
From the text: as §1

Panc1 = test: as above; details: for IC50: Homo sapiens
From the text: as §1

MiaPaca2 = test: as above; details: for IC50: Homo sapiens
From the text: as §1

stimulated PBMC [2] = test: IC50 on stimulated (actively dividing) PBMC; format: cell-based, human; details: Homo sapiens, PBMC, PBMC STIMULATED; Table IV; read-out: In vitro proliferation IC50
Experimental: (§2) The compound toxicity was determined as follow:
(§3) Therapeutic Index=Safety/Potency=IC50 stimulated PBMC/IC50 cancer cell

7 cancer cell lines = test: Therapeutic index over a panel of cancer cell lines; format: cell-based; details: average over the cancer cell lines of Table VII
Experimental: as §2, §3

MCF7 = test: In vitro proliferation / cytotoxic assay on breast cancer cells (Examples 14, 25)
Experimental: as §1
For the cytotoxic assay, cells were seeded in 96-well flat bottom culture plates in media containing charcoal stripped serum. After 24 hours, test compounds were added to the cells. DMSO was used as the vehicle negative control and RU486 as the positive control. After 72 hour incubation, cells were harvested and lysed to determine cell viability using the Cell Titer Glow assay.

HT29 = test: MTT colorimetric assay on epithelial intestinal cancer cells; format: cell-based; details: human, 72 h
Experimental: The experiment was performed to test and define anticancer activity in vitro of Cortexolone 17α-benzoate and cortexolone 17α-valerate, 21-propionate on cell lines representatives of epithelial intestinal tumours, namely HT29. The experiment method consisted in: • 1. Monolayer HT-29 cells were plated in: 96-wells plates at the density of 2×10^4 cells/mL. The cells plated were kept at 37° C. in 5% CO2 and left to attach for 24 h. • 2. […] After 72 h of treatment, the MTT colorimetric assay was performed.

MiaPaca2 (AR low) = test: ATP-dependent proliferation assay with 10 nM DHT, pancreatic cancer cells (Examples 3, 4, 7); details: for TI on Resting PBMC: IC50 resting PBMC / IC50 MiaPaca2; for TI on Stimulated PBMC: IC50 stimulated PBMC / IC50 MiaPaca2
Experimental: (§4) The experimental method consisted of: • 1. […] After 24 hrs, 10 nM DHT (dihydrotestosterone) with or without anti-androgen compounds, or DMSO vehicle (negative control) was added to the cultures. • 3.
(§5) Data from Experiment 1 were fitted through sigmoidal dose response curves and analyzed using Prizm statistical analysis software. […] The results from 2 sets of experiments follow.
(§6) Data from Experiment 1 was fitted through sigmoidal dose response curves and analyzed using Prizm statistical analysis software.

Panc1 (AR+) = test: as above; details: for TI on Resting PBMC: IC50 resting PBMC / IC50 Panc1; for TI on Stimulated PBMC: IC50 stimulated PBMC / IC50 Panc1
Experimental: as §4, §5, §6

[3] = tested on: MiaPaca-2 pancreatic tumor xenograft; test: Human pancreatic tumor xenograft in nude mice; format: in vivo
Experimental: Cortexolone 17α-benzoate and Cyproterone Acetate were separately diluted in DMSO/2-hydroxypropyl β-cyclodextrin (vehicle).
The test was carried out comparing the anti-tumor activity of cortexolone 17α-benzoate at two different dosages (8.0 mg/kg, corresponding approximately at 230 μM, and 40 mg/kg, corresponding approximately at 1150 μM), versus the vehicle (i.e. 0.4% (v/v) tween 80 and 0.5% (w/v) carboxymethylcellulose in normal saline) and versus the comparator Cyproterone Acetate at two different dosages (7.4 mg/kg and 37 mg/kg).
1×10^6 MiaPaca-2 cells suspended in matrigel were sub-cutaneously injected into 6 week old athymic nude mice.
The treatment with the tested compounds, with the vehicle and with the comparative compound, was initiated after the tumor volume has reached 50 mm^3 after transplantation. All compounds were injected 100 μL/mouse of low dose solution (approximately 230 μM) or 100 μL/mouse of high dose solution (approximately 1150 μM) of cortexolone 17α-benzoate, vehicle and Cyproterone Acetate, respectively. Compounds and controls were administered subcutaneously daily for 28 days.
Tumors were measured every 4 days with a digital caliper.
The results are plotted in FIG. 1 as average change in tumor volume relative to the start of treatment. Tumor volume was calculated according to the formula 0.5236(r1)^2(r2) where r1<r2.
Error bars are the SEM for 7 to 10 mice per treatment group. P values were calculated according to the Student's t test.
Cortexolone 17α-valerate-21-propionate and Cyproterone Acetate were separately diluted in DMSO/2-hydroxypropyl β-cyclodextrin (vehicle).
The test was carried out comparing the anti-tumor activity of cortexolone 17α-valerate-21-propionate at two different dosages (approximately 8.6 mg/kg and 43 mg/kg) versus the vehicle (i.e. 0.4% (v/v) tween 80 and 0.5% (w/v) carboxymethylcellulose in normal saline) and versus the comparator Cyproterone Acetate at two different dosages (7.4 mg/kg and 37 mg/kg).
1×10^6 MiaPaca-2 cells suspended in matrigel were subcutaneously injected into 6 week old athymic nude mice.
The treatment with the tested compound, with the vehicle and with the comparative compound was initiated after the tumor has reached a volume of 50 mm^3 after implantation, injecting subcutaneously 100 μL/mouse of low dose solution (approximately 230 μM) or 100 μL/mouse of high dose solution (approximately 1150 μM) of cortexolone 17α-valerate-21-propionate, vehicle and Cyproterone Acetate, respectively. Compounds and controls were administered subcutaneously daily for 28 days. Tumors were measured every 4 days with a digital caliper.
The results are plotted in FIG. 2 as average change in tumor volume relative to the start of treatment. Tumor volume was calculated according to the formula 0.5236(r1)^2(r2) where r1<r2.
Cyproterone acetate (CPA), a well-known anti-androgen, was used as control. Briefly 1×10^6 MiaPaca2 cells suspended in matrigel were subcutaneously (sc) injected into 6 week old male athymic nude mice. Tumors were measured every 4 days with a digital caliper. Tumor volume was calculated according to the formula: 0.5236(r1)2(r2) where r1<r2. Treatment with CB-03-06 and control compounds were initiated after the tumor had reached 50 mm^3. Compounds diluted in DMSO/2-hydroxypropyl b-cyclodextrin (vehicle) were subcutaneously injected daily (100 microL/mouse) at the concentration of 40 mg/Kg daily for 28 consecutive days.

[4] = LNCaP, read-out: In vitro proliferation IC50
[5] = PC-3, 72 h, PC3, Tables I and II, titrated 3 uM to 200 uM, 3 days
[6] = PC-3, read-out: In vitro proliferation IC50, PC3, Table IV
[7] = Experiment 1, 0 = higher toxicity in PBMC

CCCC(=O)OCC(=O)[C@@]1(OC(=O)CCC)CCC2C3CCC4=CC(=O)CC[C@]4(C)C3CC[C@@]21C (stereo partly drawn) [CB-03-03]
Therapeutic Index = IC50 resting PBMC/IC50 cancer cell (stimulated PBMC [1]): 1
IC50 (LNCaP; LNCaP, 72 h): 16 µM
IC50 (LNCaP; [4]): 16 µM
Therapeutic Index = IC50 resting PBMC/IC50 cancer cell (LNCaP; human, 3 days): 9
Therapeutic Index = IC50 stimulated PBMC/IC50 cancer cell (LNCaP; human, 3 days): 9
IC50 (PC3; [5]): 53 µM
IC50 (PC3; [6]): 53 µM
Therapeutic Index = IC50 resting PBMC/IC50 cancer cell (PC3; human, 3 days): 3
Therapeutic Index = IC50 stimulated PBMC/IC50 cancer cell (PC3; human, 3 days): 3
IC50 (Panc1; PANC-1, 72 h): 70 µM
IC50 (Panc1; PANC-1, read-out: In vitro proliferation IC50): 70 µM
Therapeutic Index = IC50 resting PBMC/IC50 cancer cell (Panc1; human, 3 days): 2
Therapeutic Index = IC50 stimulated PBMC/IC50 cancer cell (Panc1; human, 3 days): 2
IC50 (MiaPaca2; MIA PaCa-2, 72 h): 30 µM
IC50 (MiaPaca2; MIA PaCa-2, read-out: In vitro proliferation IC50): 30 µM
Therapeutic Index = IC50 resting PBMC/IC50 cancer cell (MiaPaca2; human, 3 days): 5
Therapeutic Index = IC50 stimulated PBMC/IC50 cancer cell (MiaPaca2; human, 3 days): 5
IC50 (stimulated PBMC [2]): 140 µM
Therapeutic Index = IC50 stimulated PBMC/IC50 cancer cell, AVERAGE (7 cancer cell lines): 4
IC50 (MCF7; Homo sapiens, MCF7, read-out: In vitro proliferation IC50): 32 µM
Therapeutic Index = IC50 resting PBMC/IC50 cancer cell (MCF7; human, 3 days): 4
Therapeutic Index = IC50 stimulated PBMC/IC50 cancer cell (MCF7; human, 3 days): 4

CCCC(=O)OC1(C(=O)CO)CCC2C3CCC4=CC(=O)CC[C@]4(C)C3=CC[C@@]21C (single isomer, unassigned) [CB-03-04]
Therapeutic Index = IC50 resting PBMC/IC50 cancer cell (stimulated PBMC [1]): 1
IC50 (LNCaP; LNCaP, 72 h): 46 µM
IC50 (LNCaP; [4]): 46 µM
Therapeutic Index = IC50 resting PBMC/IC50 cancer cell (LNCaP; human, 3 days): 8
Therapeutic Index = IC50 stimulated PBMC/IC50 cancer cell (LNCaP; human, 3 days): 8
IC50 (PC3; [5]): 135 µM
IC50 (PC3; [6]): 140 µM
Therapeutic Index = IC50 resting PBMC/IC50 cancer cell (PC3; human, 3 days): 3
Therapeutic Index = IC50 stimulated PBMC/IC50 cancer cell (PC3; human, 3 days): 3
Therapeutic Index = IC50 resting PBMC/IC50 cancer cell (Panc1; human, 3 days): 1
Therapeutic Index = IC50 stimulated PBMC/IC50 cancer cell (Panc1; human, 3 days): 1
Therapeutic Index = IC50 resting PBMC/IC50 cancer cell (MiaPaca2; human, 3 days): 2
Therapeutic Index = IC50 stimulated PBMC/IC50 cancer cell (MiaPaca2; human, 3 days): 2
Therapeutic Index = IC50 resting PBMC/IC50 cancer cell (HT29): 7
Therapeutic Index = IC50 stimulated PBMC/IC50 cancer cell (HT29): 7
Therapeutic Index = IC50 stimulated PBMC/IC50 cancer cell, AVERAGE (7 cancer cell lines): 4
Therapeutic Index = IC50 resting PBMC/IC50 cancer cell (MCF7; human, 3 days): 4
Therapeutic Index = IC50 stimulated PBMC/IC50 cancer cell (MCF7; human, 3 days): 4

CC(=O)O[C@]1(C(C)=O)CC[C@H]2[C@@H]3C=C(Cl)C4=CC(=O)[C@@H]5C[C@@H]5[C@]4(C)[C@H]3CC[C@@]21C [Cyproterone Acetate, reference compound]
Therapeutic Index = IC50 resting PBMC/IC50 cancer cell (stimulated PBMC [1]): 1
IC50 (LNCaP; LNCaP, 72 h): 22 µM
IC50 (LNCaP; [4]): 22 µM
Therapeutic Index = IC50 resting PBMC/IC50 cancer cell (LNCaP; LNCaP, Table IV): 3
Therapeutic Index = IC50 stimulated PBMC/IC50 cancer cell (LNCaP; LNCaP, Table VII): 3
IC50 (PC3; [5]): 90 µM
IC50 (PC3; [6]): 90 µM
Therapeutic Index = IC50 resting PBMC/IC50 cancer cell (PC3; PC3, Table IV): 1
Therapeutic Index = IC50 stimulated PBMC/IC50 cancer cell (PC3; PC3, Table VII): 1
Therapeutic Index = IC50 resting PBMC/IC50 cancer cell (Panc1; Panc1, Table IV): 1
Therapeutic Index = IC50 stimulated PBMC/IC50 cancer cell (Panc1; Panc1, Table VII): 1
Therapeutic Index = IC50 resting PBMC/IC50 cancer cell (MiaPaca2; MiaPaca2, Table IV): 2
Therapeutic Index = IC50 stimulated PBMC/IC50 cancer cell (MiaPaca2; MiaPaca2, Table VII): 2
Therapeutic Index = IC50 stimulated PBMC/IC50 cancer cell, AVERAGE (7 cancer cell lines): 1
TI on Resting PBMC (MiaPaca2 (AR low); [7]): 0
TI on Resting PBMC (MiaPaca2 (AR low); Experiment 2): 1
TI on Stimulated PBMC (MiaPaca2 (AR low); [7]): 2
TI on Stimulated PBMC (MiaPaca2 (AR low); Experiment 2): 2
TI on Resting PBMC (Panc1 (AR+); [7]): 0
TI on Resting PBMC (Panc1 (AR+); Experiment 2): 4
TI on Stimulated PBMC (Panc1 (AR+); [7]): 1
TI on Stimulated PBMC (Panc1 (AR+); Experiment 2): 1
pancreatic tumor size relative to the size when treatment was initiated ([3]; Example 5, MiaPaca-2 xenograft, nude mice, SC daily 28 days, high dose of cortexolone 17α-benzoate (40 mg/kg)): 12 fold
pancreatic tumor size relative to the initial tumor size ([3]; Example 6, MiaPaca-2 xenograft, nude mice, SC daily 28 days, for the time of treatment): ≥ 12 fold
pancreatic tumor size relative to the initial size ([3]; Example 22, MiaPaca2 xenograft, male nude mice, 40 mg/Kg SC daily 28 days, treatment period): 12 fold
Median survival ([3]; Example 22, MiaPaca2 xenograft, 40 mg/Kg SC daily 28 days): 40 days
Therapeutic Index = IC50 resting PBMC/IC50 cancer cell (MCF7; MCF7, Table IV): 1
Therapeutic Index = IC50 stimulated PBMC/IC50 cancer cell (MCF7; MCF7, Table VII): 1

CCC(=O)O[C@]1(C(=O)CO)CC[C@H]2[C@@H]3CCC4=CC(=O)CC[C@]4(C)[C@H]3CC[C@@]21C [CB-03-01, cortexolone 17α-propionate]
Therapeutic Index = IC50 resting PBMC/IC50 cancer cell (stimulated PBMC [1]): 1
IC50 (LNCaP; LNCaP, 72 h): 33 µM
IC50 (LNCaP; [4]): 33 µM
Therapeutic Index = IC50 resting PBMC/IC50 cancer cell (LNCaP; human, 3 days): 0
Therapeutic Index = IC50 stimulated PBMC/IC50 cancer cell (LNCaP; human, 3 days): 0
IC50 (PC3; [5]): 190 µM
IC50 (PC3; [6]): 190 µM
Therapeutic Index = IC50 resting PBMC/IC50 cancer cell (PC3; human, 3 days): 0
Therapeutic Index = IC50 stimulated PBMC/IC50 cancer cell (PC3; human, 3 days): 0
Therapeutic Index = IC50 resting PBMC/IC50 cancer cell (Panc1; human, 3 days): 0
Therapeutic Index = IC50 stimulated PBMC/IC50 cancer cell (Panc1; human, 3 days): 0
Therapeutic Index = IC50 resting PBMC/IC50 cancer cell (MiaPaca2; human, 3 days): 0
Therapeutic Index = IC50 stimulated PBMC/IC50 cancer cell (MiaPaca2; human, 3 days): 0
Therapeutic Index = IC50 stimulated PBMC/IC50 cancer cell, AVERAGE (7 cancer cell lines): 0
Therapeutic Index = IC50 resting PBMC/IC50 cancer cell (MCF7; human, 3 days): 0
Therapeutic Index = IC50 stimulated PBMC/IC50 cancer cell (MCF7; human, 3 days): 0
